Values quoted from earlier work in publication PMC5560747, “Computational-experimental approach to drug-target interaction mapping: A case study on kinase inhibitors” (PLoS Computational Biology, 2017).

Key:
Design in all cases: method as in Gao et al. [42]
Details in all cases: ref Gao et al. [42], cited from earlier work
[1] = target: LCK (Homo sapiens, UniProt P06239)
[2] = target: T1, Aurora A (Homo sapiens, UniProt O14965)
T1 construct: purchased SignalChem A28-18G-10
T1 sequence (O14965 1-403): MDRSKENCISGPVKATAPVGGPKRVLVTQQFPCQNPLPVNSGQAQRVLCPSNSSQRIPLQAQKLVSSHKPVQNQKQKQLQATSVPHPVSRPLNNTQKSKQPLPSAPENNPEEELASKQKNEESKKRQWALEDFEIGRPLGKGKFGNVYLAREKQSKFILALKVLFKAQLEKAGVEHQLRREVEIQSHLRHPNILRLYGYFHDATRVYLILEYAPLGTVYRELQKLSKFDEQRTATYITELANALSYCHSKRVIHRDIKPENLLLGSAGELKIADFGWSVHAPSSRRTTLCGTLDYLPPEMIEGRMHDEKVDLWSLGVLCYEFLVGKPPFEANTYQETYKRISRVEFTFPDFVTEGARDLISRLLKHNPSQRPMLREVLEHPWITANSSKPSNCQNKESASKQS

[3] = target: PYK2 (Homo sapiens, UniProt Q14289)
[4] = test system: ROS1
[5] = test system: MINK1
[6] = test system: PKN2
[7] = test system: JAK2
[8] = test system: ALK
[9] = test system: PAK4
[10] = test system: JNK1
[11] = test system: EPHA2
[12] = test system: AKT2
[13] = test system: AKT1
[14] = test system: CAMK2B
[15] = test system: SGK1
[16] = test system: BRSK1
[17] = test system: SRPK1
[18] = test system: CDK1
[19] = test system: CSNK1G2
[20] = test system: CAMK1
[21] = test system: MAPKAPK3

Sequence of LCK (P06239 whole entry): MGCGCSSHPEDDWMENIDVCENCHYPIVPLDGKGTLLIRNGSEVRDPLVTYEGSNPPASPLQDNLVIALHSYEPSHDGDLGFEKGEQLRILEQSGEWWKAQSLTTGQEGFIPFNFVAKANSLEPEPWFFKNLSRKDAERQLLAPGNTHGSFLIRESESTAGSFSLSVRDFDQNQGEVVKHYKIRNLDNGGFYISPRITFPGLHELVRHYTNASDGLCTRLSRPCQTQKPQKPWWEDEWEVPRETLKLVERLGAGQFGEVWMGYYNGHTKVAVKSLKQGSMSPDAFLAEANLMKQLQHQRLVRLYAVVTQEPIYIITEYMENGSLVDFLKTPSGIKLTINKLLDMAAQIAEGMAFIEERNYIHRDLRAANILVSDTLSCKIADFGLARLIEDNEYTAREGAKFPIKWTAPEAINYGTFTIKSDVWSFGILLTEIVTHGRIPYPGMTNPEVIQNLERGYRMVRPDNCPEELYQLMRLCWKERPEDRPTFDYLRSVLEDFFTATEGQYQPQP
Sequence of PYK2 (Q14289 whole entry): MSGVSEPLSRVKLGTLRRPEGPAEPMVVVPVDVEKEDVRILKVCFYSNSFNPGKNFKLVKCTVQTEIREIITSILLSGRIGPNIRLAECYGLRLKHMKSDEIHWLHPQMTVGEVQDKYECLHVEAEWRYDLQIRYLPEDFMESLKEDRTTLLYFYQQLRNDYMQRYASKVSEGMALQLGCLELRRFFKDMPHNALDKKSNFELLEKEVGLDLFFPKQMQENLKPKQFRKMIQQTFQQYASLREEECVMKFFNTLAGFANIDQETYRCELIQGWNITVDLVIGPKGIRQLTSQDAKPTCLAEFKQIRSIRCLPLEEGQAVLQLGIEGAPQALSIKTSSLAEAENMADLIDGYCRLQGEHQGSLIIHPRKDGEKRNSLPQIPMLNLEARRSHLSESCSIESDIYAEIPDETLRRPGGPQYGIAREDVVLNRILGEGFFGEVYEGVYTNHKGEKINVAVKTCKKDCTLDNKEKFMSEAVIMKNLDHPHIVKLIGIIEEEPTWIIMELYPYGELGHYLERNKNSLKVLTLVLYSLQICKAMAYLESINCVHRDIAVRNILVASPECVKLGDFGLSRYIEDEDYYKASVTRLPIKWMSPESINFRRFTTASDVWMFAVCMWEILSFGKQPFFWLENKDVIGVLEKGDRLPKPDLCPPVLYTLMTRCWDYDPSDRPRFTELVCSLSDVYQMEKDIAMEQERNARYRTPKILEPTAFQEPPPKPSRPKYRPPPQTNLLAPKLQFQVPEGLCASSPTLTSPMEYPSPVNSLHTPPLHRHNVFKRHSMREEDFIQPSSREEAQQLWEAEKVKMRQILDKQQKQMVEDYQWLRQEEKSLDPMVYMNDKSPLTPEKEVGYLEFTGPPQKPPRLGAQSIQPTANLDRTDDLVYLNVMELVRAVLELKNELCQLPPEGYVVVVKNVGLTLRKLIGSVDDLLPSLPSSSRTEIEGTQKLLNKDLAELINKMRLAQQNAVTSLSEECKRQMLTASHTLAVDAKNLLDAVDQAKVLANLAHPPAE

SMILES: COc1cc2nccc(Oc3ccc(NC(=O)Nc4cc(C)on4)c(Cl)c3)c2cc1OC [TIVOZANIB, Tivozanib]
- Gao et al. % of activity remaining at 1 µM ([1]; 1 µM): -2%
- Gao et al. % of activity remaining at 10 µM ([1]; 10 µM): 1%
- Gao et al. % of activity remaining at 1 µM ([2]; 1 µM): 7%
- Gao et al. % of activity remaining at 10 µM ([2]; 10 µM): 7%
- Gao et al. % of activity remaining at 1 µM ([3]; 1 µM): 34%
- Gao et al. % of activity remaining at 10 µM ([3]; 10 µM): 8%
- Gao et al. % of activity remaining at 1 µM ([4]; 1 µM): 24%
- Gao et al. % of activity remaining at 10 µM ([4]; 10 µM): 16%
- Gao et al. % of activity remaining at 1 µM ([5]; 1 µM): 71%
- Gao et al. % of activity remaining at 10 µM ([5]; 10 µM): 21%
- Gao et al. % of activity remaining at 1 µM ([6]; 1 µM): 97%
- Gao et al. % of activity remaining at 10 µM ([6]; 10 µM): 108%
- Gao et al. % of activity remaining at 1 µM ([7]; 1 µM): 114%
- Gao et al. % of activity remaining at 10 µM ([7]; 10 µM): 114%
- Gao et al. % of activity remaining at 1 µM ([8]; 1 µM): 83%
- Gao et al. % of activity remaining at 10 µM ([8]; 10 µM): 38%
- Gao et al. % of activity remaining at 1 µM ([9]; 1 µM): 99%
- Gao et al. % of activity remaining at 10 µM ([9]; 10 µM): 92%
- Gao et al. % of activity remaining at 1 µM ([10]; 1 µM): 120%
- Gao et al. % of activity remaining at 10 µM ([10]; 10 µM): 109%
- Gao et al. % of activity remaining at 1 µM ([11]; 1 µM): -3%
- Gao et al. % of activity remaining at 10 µM ([11]; 10 µM): -3%
- Gao et al. % of activity remaining at 1 µM ([12]; 1 µM): 105%
- Gao et al. % of activity remaining at 10 µM ([12]; 10 µM): 89%
- Gao et al. % of activity remaining at 1 µM ([13]; 1 µM): 97%
- Gao et al. % of activity remaining at 10 µM ([13]; 10 µM): 101%
- Gao et al. % of activity remaining at 1 µM ([14]; 1 µM): 97%
- Gao et al. % of activity remaining at 10 µM ([14]; 10 µM): 69%
- Gao et al. % of activity remaining at 1 µM ([15]; 1 µM): 83%
- Gao et al. % of activity remaining at 10 µM ([15]; 10 µM): 64%
- Gao et al. % of activity remaining at 1 µM ([16]; 1 µM): 65%
- Gao et al. % of activity remaining at 10 µM ([16]; 10 µM): 46%
- Gao et al. % of activity remaining at 1 µM ([17]; 1 µM): 98%
- Gao et al. % of activity remaining at 10 µM ([17]; 10 µM): 90%
- Gao et al. % of activity remaining at 1 µM ([18]; 1 µM): 100%
- Gao et al. % of activity remaining at 10 µM ([18]; 10 µM): 94%
- Gao et al. % of activity remaining at 1 µM ([19]; 1 µM): 80%
- Gao et al. % of activity remaining at 10 µM ([19]; 10 µM): 73%
- Gao et al. % of activity remaining at 1 µM ([20]; 1 µM): 105%
- Gao et al. % of activity remaining at 10 µM ([20]; 10 µM): 41%
- Gao et al. % of activity remaining at 1 µM ([21]; 1 µM): 116%
- Gao et al. % of activity remaining at 10 µM ([21]; 10 µM): 67%
